Legend:
[1] = Accelerated Stability Screening Method (tablets stored at 85° C., degradation by HPLC); settings: additive to tablets of substituted 3,5-diene steroidal compounds
Description: The stability of N-t-butyl-androst-3,5-diene-17β-carboxamide-3-carboxylic acid (compound A) in various tablet formulations was determined by HPLC analysis.
In Experiment 1 Compound A, microcrystalline cellulose, lactose, corn starch and sodium starch glycolate shown in Table I below, were mixed in the proportions shown. […] The tablets thus prepared were placed in stability chamber at 85° and the results of the stability test were recorded in Table 2 below.
The tablets thus prepared were placed in stability chamber at 85° C. and the results of the stability test were recorded in Table 3 below.
The tablets thus prepared were placed in stability chamber at 85° C. and the results of the stability test were recorded in Table 5 below.
In Experiment 4 Standard Granulation and BHT (for Batch 8) shown in Table 6 below, or stearic acid and BHT (for Batch 9) shown in Table 7 below, were mixed and granulated in the proportions shown and compressed into tablets of about 350 mg total tablet weight. The tablets thus prepared were placed in stability chamber at 85° C. and the results of the stability test were recorded in Tables 6 and 7 below.
The tablets thus prepared were placed in stability chamber at 85° C. and the results of the stability test were recorded in Table 8 below. […]

steroid 5-α-reductase = settings: cited from earlier work
[2] = stability of compound in blends/granulations versus compressed tablets; degradation products analyzed by LC/MS; assay type: physicochemical; settings: compressed into direct compression or wet granulation tablets with excipients
From the text: Although stable when blended or granulated with one or more commonly used pharmaceutical excipients such as, for example, lactose, tribasic calcium phosphate, silicon dioxide, corn starch, sodium starch glycolate, hydroxypropyl cellulose, hydroxypropyl methylcellulose, gelatin, magnesium stearate, microcrystalline cellulose, mannitol, and sorbitol, substituted 3,5-diene steroidal compounds were unexpectedly found to undergo a significant increase in the rate of formation of degradation products when compressed into tablets with such pharmaceutical excipients. This increase in degradation products occurs whether the substituted 3,5-diene steroidal compound and said excipients are formulated in direct compression tablets or in wet granulation tablets.

SMILES | stabilizing effect on tablets (percentage of degradation products) [1] | inhibition of steroid 5-α-reductase (steroid 5-α-reductase) | formation of degradation products when compressed into tablets [2]
CCCCCCCCCCCCCCCCCC(=O)O [magnesium stearate] | do not exhibit such activity |  | 
CC(C)(C)NC(=O)[C@H]1CC[C@H]2[C@@H]3CC=C4C=C(C(=O)O)CC[C@]4(C)[C@H]3CC[C@]12C [Compound A, N-t-butyl-androst-3,5-diene-17β-carboxamide-3-carboxylic acid] |  | useful in inhibiting steroid 5αreductase | oxidative additions (the 7 keto oxidation product and others) which only occurred when blends or granulations of Compound A were compressed into tablets
